Measured values as given in ChEMBL document CHEMBL1201862, “PubChem BioAssay data set” (2004).
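Each compound was tested at five concentrations against cells in 96-well plates for 48 hours. Here, GI50 denotes the concentration required for 50% inhibition of growth.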 Activity calls are given as the source filed them. Rule as the data show it: active = GI50 up to about 1.1 µM and inactive = higher.

How the values were obtained:
Experiment in all cases: NCI anticancer screen, dose series, 48 h
SNB-19 = tested on: SNB-19
ACHN = tested on: ACHN
MOLT-4 = tested on: MOLT-4
IGROV-1 = tested on: IGROV-1
HCC 2998 = tested on: HCC 2998
HCT-15 = tested on: HCT-15
UO-31 = tested on: UO-31
KM12 = tested on: KM12
DLD-1 = tested on: DLD-1
CCRF-CEM = tested on: CCRF-CEM
RPMI-8226 = tested on: RPMI-8226
HOP-18 = tested on: HOP-18
KM-20L2 = tested on: KM-20L2
TK-10 = tested on: TK-10
HL-60 = tested on: HL-60
SNB-75 = tested on: SNB-75
M14 = tested on: M14
HOP-92 = tested on: HOP-92
HOP-62 = tested on: HOP-62
HT-29 = tested on: HT-29
UACC-62 = tested on: UACC-62
DMS-114 = tested on: DMS-114
SN12C = tested on: SN12C
A498 = tested on: A498
RXF 393 = tested on: RXF 393
SF-295 = tested on: SF-295
SK-OV-3 = tested on: SK-OV-3
NCI-H226 = tested on: NCI-H226
SK-MEL-28 = tested on: SK-MEL-28
OVCAR-8 = tested on: OVCAR-8
NCI-H522 = tested on: NCI-H522
COLO 205 = tested on: COLO 205
NCI-H23 = tested on: NCI-H23
RXF 631 = tested on: RXF 631
EKVX = tested on: EKVX
M19-MEL = tested on: M19-MEL
SF-268 = tested on: SF-268
UACC-257 = tested on: UACC-257
SW-620 = tested on: SW-620
XF498 = tested on: XF498
SF-539 = tested on: SF-539
K562 = tested on: K562
NCI-H460 = tested on: NCI-H460
OVCAR-3 = tested on: OVCAR-3
SK-MEL-5 = tested on: SK-MEL-5
U-251 = tested on: U-251
Malme-3M = tested on: Malme-3M
786-0 = tested on: 786-0
LXFL 529 = tested on: LXFL 529
OVCAR-5 = tested on: OVCAR-5
HCT-116 = tested on: HCT-116
LOX IMVI = tested on: LOX IMVI
SR = tested on: SR
A549 = tested on: A549
CAKI-1 = tested on: CAKI-1
DMS-273 = tested on: DMS-273
OVCAR-4 = tested on: OVCAR-4
SK-MEL-2 = tested on: SK-MEL-2
SNB-78 = tested on: SNB-78

C/C(=N\NC(N)=S)c1ccc(/C(C)=N/NC(N)=S)cc1
GI50 (SNB-19): > 100 µM (inactive)
GI50 (ACHN): > 100 µM (inactive)
GI50 (MOLT-4): > 100 µM (inactive)
GI50 (IGROV-1): > 100 µM (inactive)
GI50 (HCC 2998): > 100 µM (inactive)
GI50 (HCT-15): > 100 µM
GI50 (UO-31): > 100 µM (inactive)
GI50 (KM12): > 100 µM (inactive)
GI50 (DLD-1): > 100 µM (inactive)
GI50 (CCRF-CEM): > 100 µM (inactive)
GI50 (RPMI-8226): > 100 µM (inactive)
GI50 (HOP-18): > 100 µM (inactive)
GI50 (KM-20L2): > 100 µM (inactive)
GI50 (TK-10): > 100 µM (inactive)
GI50 (HL-60): > 100 µM (inactive)
GI50 (SNB-75): > 100 µM (inactive)
GI50 (M14): > 100 µM (inactive)
GI50 (HOP-92): > 100 µM (inactive)
GI50 (HOP-62): > 100 µM (inactive)
GI50 (HT-29): > 100 µM (inactive)
GI50 (UACC-62): > 100 µM (inactive)
GI50 (DMS-114): > 100 µM (inactive)
GI50 (SN12C): > 100 µM (inactive)
GI50 (A498): > 100 µM (inactive)
GI50 (RXF 393): > 100 µM (inactive)
GI50 (SF-295): > 100 µM (inactive)
GI50 (SK-OV-3): > 100 µM (inactive)
GI50 (NCI-H226): > 100 µM (inactive)
GI50 (SK-MEL-28): > 100 µM (inactive)
GI50 (OVCAR-8): > 100 µM (inactive)
GI50 (NCI-H522): > 100 µM (inactive)
GI50 (COLO 205): > 100 µM (inactive)
GI50 (NCI-H23): > 100 µM (inactive)
GI50 (RXF 631): > 100 µM (inactive)
GI50 (EKVX): > 100 µM (inactive)
GI50 (M19-MEL): > 100 µM (inactive)
GI50 (SF-268): > 100 µM (inactive)
GI50 (UACC-257): > 100 µM (inactive)
GI50 (SW-620): > 100 µM (inactive)
GI50 (XF498): > 100 µM (inactive)
GI50 (SF-539): > 100 µM (inactive)
GI50 (K562): > 100 µM (inactive)
GI50 (NCI-H460): > 100 µM (inactive)
GI50 (OVCAR-3): > 100 µM (inactive)
GI50 (SK-MEL-5): > 100 µM (inactive)
GI50 (U-251): > 100 µM (inactive)
GI50 (Malme-3M): > 100 µM (inactive)
GI50 (786-0): > 100 µM (inactive)
GI50 (LXFL 529): > 100 µM (inactive)
GI50 (OVCAR-5): > 100 µM (inactive)
GI50 (HCT-116): > 100 µM (inactive)
GI50 (LOX IMVI): > 100 µM (inactive)
GI50 (SR): > 100 µM (inactive)
GI50 (A549): > 100 µM (inactive)

CCOC(=O)C1=C(Nc2ccc(Cl)cc2Cl)OCC1=O
GI50 (SNB-19): > 100 µM (inactive)
GI50 (ACHN): > 100 µM (inactive)
GI50 (MOLT-4): > 100 µM (inactive)
GI50 (IGROV-1): > 100 µM (inactive)
GI50 (HCC 2998): > 100 µM (inactive)
GI50 (HCT-15): > 100 µM
GI50 (UO-31): > 100 µM (inactive)
GI50 (KM12): > 100 µM (inactive)
GI50 (DLD-1): > 100 µM (inactive)
GI50 (RPMI-8226): > 100 µM (inactive)
GI50 (KM-20L2): > 100 µM (inactive)
GI50 (TK-10): > 100 µM (inactive)
GI50 (HL-60): > 100 µM (inactive)
GI50 (SNB-75): > 100 µM (inactive)
GI50 (M14): > 100 µM (inactive)
GI50 (HOP-92): > 100 µM (inactive)
GI50 (CAKI-1): > 100 µM (inactive)
GI50 (HOP-62): > 100 µM (inactive)
GI50 (HT-29): > 100 µM (inactive)
GI50 (UACC-62): > 100 µM (inactive)
GI50 (SN12C): > 100 µM (inactive)
GI50 (SF-295): > 100 µM (inactive)
GI50 (SK-OV-3): > 100 µM (inactive)
GI50 (NCI-H226): > 100 µM (inactive)
GI50 (SK-MEL-28): > 100 µM (inactive)
GI50 (OVCAR-8): > 100 µM (inactive)
GI50 (NCI-H522): > 100 µM (inactive)
GI50 (COLO 205): > 100 µM (inactive)
GI50 (NCI-H23): > 100 µM (inactive)
GI50 (RXF 631): > 100 µM (inactive)
GI50 (M19-MEL): > 100 µM (inactive)
GI50 (SF-268): > 100 µM (inactive)
GI50 (UACC-257): > 100 µM (inactive)
GI50 (SW-620): > 100 µM (inactive)
GI50 (XF498): > 100 µM (inactive)
GI50 (SF-539): > 100 µM (inactive)
GI50 (DMS-273): > 100 µM (inactive)
GI50 (K562): > 100 µM (inactive)
GI50 (NCI-H460): > 100 µM (inactive)
GI50 (OVCAR-3): > 100 µM (inactive)
GI50 (U-251): > 100 µM (inactive)
GI50 (Malme-3M): > 100 µM (inactive)
GI50 (786-0): > 100 µM (inactive)
GI50 (LXFL 529): > 100 µM (inactive)
GI50 (OVCAR-5): > 100 µM (inactive)
GI50 (HCT-116): > 100 µM (inactive)
GI50 (LOX IMVI): > 100 µM (inactive)
GI50 (OVCAR-4): > 100 µM (inactive)
GI50 (SR): > 100 µM (inactive)
GI50 (A549): > 100 µM (inactive)
GI50 (SK-MEL-2): > 100 µM (inactive)
GI50 (SNB-78): > 100 µM (inactive)
